Assay results taken from patent publication US20250114345A1, “COMPOUNDS AND COMPOSITIONS AS CBP/P300 DEGRADERS AND USES THEREOF” (Oncopia Therapeutics, Inc. d/b/a/ SK Life Science Labs, priority 2023, published 2025).

Assays:
CBP = molecular target: T1, CBP (Homo sapiens, UniProt Q92793); assay: CBP degradation, HiBit technology in A549 CBP HiBit cells (24 h); assay type: cell-based; details: 24 hrs post treatment
T1 construct: host or cells: A549 CBP HiBit cells
Procedure, shortened: (§1)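 Cells: A549 HiBiT-tagged lines, 0.2×10^4/well, F-12K + 10% HI-FBS, equilibrated overnight. Tx: serial dilution of cpd (10 mM DMSO stock). Readout: HiBiT lytic reagent, 10 min RT shaking, luminescence → potency, Dmax.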

p300 = molecular target: T2, p300 (Homo sapiens, UniProt Q09472); assay: P300 degradation, HiBit technology in A549 P300 HiBit cells (2 h); assay type: cell-based; details: 2 hrs post treatment; for Dmax: A549, A549 P300 HiBit cells; for DC50: A549 P300 HiBit cells
T2 construct: host or cells: A549 P300 HiBit cells
Procedure, shortened: as §1

T1 sequence (Q92793 whole entry): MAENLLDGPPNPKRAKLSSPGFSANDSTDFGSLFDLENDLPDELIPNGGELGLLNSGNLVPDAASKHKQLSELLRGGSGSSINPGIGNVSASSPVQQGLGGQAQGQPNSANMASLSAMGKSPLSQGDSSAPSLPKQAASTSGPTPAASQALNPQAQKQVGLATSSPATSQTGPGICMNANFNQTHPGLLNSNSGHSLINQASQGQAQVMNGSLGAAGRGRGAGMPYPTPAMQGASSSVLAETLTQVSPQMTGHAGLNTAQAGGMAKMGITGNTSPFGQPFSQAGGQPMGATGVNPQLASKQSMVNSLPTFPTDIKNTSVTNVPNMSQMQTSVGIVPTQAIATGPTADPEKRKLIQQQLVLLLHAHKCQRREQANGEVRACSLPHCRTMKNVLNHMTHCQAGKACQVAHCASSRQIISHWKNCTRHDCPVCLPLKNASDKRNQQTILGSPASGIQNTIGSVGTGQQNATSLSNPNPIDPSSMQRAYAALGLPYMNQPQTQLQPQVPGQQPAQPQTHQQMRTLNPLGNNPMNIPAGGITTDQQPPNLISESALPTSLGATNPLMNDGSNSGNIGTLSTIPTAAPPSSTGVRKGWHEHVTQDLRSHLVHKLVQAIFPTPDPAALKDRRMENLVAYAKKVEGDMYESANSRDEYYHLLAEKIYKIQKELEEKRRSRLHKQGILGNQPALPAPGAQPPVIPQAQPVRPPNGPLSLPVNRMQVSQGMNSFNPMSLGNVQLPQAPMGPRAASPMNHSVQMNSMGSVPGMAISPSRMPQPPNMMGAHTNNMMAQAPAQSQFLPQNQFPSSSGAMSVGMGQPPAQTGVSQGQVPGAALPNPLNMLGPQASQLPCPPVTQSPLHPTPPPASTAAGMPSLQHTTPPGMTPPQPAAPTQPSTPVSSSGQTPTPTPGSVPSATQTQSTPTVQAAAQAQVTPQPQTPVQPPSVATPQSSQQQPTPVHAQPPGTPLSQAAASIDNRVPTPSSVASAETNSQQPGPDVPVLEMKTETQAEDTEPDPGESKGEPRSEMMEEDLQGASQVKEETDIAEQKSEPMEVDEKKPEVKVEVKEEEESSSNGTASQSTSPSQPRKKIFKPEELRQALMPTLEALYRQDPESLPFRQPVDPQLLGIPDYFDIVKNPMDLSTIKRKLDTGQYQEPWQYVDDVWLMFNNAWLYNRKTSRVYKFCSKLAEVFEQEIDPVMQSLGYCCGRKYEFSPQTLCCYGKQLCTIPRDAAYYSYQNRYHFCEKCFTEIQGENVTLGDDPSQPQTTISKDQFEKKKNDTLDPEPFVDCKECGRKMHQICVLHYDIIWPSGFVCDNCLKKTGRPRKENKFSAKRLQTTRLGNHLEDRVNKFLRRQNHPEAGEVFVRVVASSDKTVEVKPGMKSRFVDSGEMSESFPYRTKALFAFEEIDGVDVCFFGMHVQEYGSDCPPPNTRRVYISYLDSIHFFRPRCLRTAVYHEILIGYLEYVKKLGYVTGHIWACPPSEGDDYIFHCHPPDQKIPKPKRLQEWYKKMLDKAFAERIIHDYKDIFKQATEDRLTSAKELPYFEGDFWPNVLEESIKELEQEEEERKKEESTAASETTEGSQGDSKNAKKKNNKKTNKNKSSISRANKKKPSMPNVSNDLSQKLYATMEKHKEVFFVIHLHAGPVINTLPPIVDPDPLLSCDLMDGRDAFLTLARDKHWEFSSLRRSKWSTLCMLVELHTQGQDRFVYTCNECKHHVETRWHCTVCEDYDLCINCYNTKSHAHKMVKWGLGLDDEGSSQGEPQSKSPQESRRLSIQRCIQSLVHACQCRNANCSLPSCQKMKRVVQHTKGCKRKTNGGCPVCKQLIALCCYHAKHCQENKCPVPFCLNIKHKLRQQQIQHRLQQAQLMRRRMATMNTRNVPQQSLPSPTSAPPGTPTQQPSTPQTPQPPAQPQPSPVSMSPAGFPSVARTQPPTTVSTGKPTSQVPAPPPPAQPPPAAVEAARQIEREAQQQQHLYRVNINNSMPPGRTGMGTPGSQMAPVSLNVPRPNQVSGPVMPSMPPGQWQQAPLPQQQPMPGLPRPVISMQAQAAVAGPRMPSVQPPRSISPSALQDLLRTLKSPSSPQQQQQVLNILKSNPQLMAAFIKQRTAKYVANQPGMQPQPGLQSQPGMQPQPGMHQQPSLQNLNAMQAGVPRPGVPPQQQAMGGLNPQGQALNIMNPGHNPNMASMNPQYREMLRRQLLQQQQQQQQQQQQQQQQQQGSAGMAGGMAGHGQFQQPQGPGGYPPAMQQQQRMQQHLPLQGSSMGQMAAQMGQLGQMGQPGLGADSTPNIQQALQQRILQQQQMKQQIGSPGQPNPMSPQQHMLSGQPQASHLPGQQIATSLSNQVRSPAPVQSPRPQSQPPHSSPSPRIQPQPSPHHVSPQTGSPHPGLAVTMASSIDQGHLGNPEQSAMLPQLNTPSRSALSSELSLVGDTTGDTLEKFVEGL
T2 sequence (Q09472 whole entry): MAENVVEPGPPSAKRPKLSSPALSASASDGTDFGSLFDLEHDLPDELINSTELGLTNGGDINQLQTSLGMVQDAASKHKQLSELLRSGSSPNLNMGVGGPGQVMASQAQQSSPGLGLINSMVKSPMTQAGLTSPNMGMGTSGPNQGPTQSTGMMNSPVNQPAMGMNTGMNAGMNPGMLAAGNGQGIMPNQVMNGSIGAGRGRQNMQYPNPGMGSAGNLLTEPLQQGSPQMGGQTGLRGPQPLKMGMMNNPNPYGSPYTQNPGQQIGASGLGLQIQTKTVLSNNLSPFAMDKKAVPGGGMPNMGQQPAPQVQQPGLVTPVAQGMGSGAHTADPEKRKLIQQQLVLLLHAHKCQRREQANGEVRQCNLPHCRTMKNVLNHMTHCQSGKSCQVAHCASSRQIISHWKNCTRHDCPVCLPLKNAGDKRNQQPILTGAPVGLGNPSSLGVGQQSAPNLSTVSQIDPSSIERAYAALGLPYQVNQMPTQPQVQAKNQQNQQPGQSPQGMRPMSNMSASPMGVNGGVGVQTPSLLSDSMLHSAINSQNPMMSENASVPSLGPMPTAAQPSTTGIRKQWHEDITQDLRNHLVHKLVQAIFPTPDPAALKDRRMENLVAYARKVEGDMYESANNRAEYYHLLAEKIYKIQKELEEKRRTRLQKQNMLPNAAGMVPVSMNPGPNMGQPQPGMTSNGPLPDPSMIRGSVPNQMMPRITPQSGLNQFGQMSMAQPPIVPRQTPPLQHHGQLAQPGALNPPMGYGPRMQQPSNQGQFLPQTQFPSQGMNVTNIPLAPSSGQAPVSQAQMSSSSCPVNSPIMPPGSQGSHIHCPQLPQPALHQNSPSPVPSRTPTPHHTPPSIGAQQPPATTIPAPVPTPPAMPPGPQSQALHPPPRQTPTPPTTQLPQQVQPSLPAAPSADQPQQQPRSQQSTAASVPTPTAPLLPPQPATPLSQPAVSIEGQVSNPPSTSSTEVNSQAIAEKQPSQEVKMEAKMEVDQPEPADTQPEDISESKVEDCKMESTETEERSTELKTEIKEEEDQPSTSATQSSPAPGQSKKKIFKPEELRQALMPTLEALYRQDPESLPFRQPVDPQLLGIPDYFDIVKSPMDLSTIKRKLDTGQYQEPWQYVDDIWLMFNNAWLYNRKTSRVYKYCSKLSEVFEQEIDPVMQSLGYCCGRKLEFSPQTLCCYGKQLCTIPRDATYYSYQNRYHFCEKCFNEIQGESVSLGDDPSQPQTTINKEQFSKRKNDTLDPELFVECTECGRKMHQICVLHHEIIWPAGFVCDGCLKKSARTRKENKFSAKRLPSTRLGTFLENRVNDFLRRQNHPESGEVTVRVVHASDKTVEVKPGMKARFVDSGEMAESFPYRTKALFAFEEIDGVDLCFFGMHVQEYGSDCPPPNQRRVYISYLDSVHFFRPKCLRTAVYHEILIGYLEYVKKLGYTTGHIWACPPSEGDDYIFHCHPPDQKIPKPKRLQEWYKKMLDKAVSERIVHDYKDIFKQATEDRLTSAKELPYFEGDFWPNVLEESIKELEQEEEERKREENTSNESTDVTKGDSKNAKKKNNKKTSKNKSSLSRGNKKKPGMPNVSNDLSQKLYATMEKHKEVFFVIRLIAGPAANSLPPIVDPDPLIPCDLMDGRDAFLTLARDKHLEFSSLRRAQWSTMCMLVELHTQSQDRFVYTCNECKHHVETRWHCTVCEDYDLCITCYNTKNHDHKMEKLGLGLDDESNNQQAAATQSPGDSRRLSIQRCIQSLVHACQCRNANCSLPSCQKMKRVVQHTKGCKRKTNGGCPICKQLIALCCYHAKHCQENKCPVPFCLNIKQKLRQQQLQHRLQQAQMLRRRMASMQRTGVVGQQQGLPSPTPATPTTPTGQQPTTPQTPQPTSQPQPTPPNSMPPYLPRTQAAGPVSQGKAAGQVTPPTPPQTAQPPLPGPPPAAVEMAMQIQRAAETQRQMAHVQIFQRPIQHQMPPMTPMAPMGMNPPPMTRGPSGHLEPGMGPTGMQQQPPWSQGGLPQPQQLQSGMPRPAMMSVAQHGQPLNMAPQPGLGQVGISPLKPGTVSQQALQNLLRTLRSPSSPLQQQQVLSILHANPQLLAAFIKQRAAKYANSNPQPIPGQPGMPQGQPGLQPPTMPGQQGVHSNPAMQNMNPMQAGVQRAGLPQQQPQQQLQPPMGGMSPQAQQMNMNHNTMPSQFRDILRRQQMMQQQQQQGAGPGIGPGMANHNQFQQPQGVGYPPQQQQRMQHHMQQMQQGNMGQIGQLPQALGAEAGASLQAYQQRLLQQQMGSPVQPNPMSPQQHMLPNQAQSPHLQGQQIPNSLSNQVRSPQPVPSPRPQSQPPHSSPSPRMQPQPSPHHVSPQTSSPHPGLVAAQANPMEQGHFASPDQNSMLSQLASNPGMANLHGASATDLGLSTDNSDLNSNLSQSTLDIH

SMILES	DC50 (CBP)	Dmax (CBP)	Dmax (p300)	DC50 (p300)
Cc1cc2c(N3CCCc4nc(-c5ccc(C(=O)NCC#Cc6ccc7occ(C8CCC(=O)NC8=O)c7c6)nc5)ncc43)nc(N3CC4(COC4)C3)cc2n(C)c1=O (stereo not shown) [Example B137, 5-(5-(1,3-dimethyl-2-oxo-7-(2-oxa-6-azaspiro[3.3]heptan-6-yl)-1,2-dihydro-1,6-naphthyridin-5-yl)-5,6,7,8-tetrahydropyrido [3,2-d]pyrimidin-2-yl)-N-(3-(3-(2,6-dioxo-piperidin-3-yl)benzofuran-5-yl)prop-2-yn-1-yl)picolinamide]	> 1000 nM	< 20%	60 to 79%	1 to 9.9 nM
Cc1cc2c(N3CCCc4cc(-c5ccc(C(=O)NCC#Cc6cc7c(C8CCC(=O)NC8=O)cccc7o6)nc5)nnc43)cc(C3CCOCC3)cc2n(C)c1=O (stereo not shown) [Example B138, 5-(8-(1,3-dimethyl-2-oxo-7-(tetrahydro-2H-pyran-4-yl)-1,2-dihydroquinolin-5-yl)-5,6,7,8-tetrahydropyrido[2,3-c]pyridazin-3-yl)-N-(3-(4-(2,6-dioxopiperidin-3-yl)benzofuran-2-yl)prop-2-yn-1-yl)picolinamide]	100 to 999 nM	< 20%	> 80%	< 1 nM
Cc1cc(-c2ncc3c(n2)CCCN3c2cc(C3CCOCC3)cc3c2cc(C)c(=O)n3C)cnc1C(=O)NCC#Cc1cc2c(C3CCC(=O)NC3=O)cccc2o1 (stereo not shown) [Example B141, 5-(5-(1,3-dimethyl-2-oxo-7-(tetrahydro-2H-pyran-4-yl)-1,2-dihydroquinolin-5-yl)-5,6,7,8-tetrahydropyrido[3,2-d]pyrimidin-2-yl)-N-(3-(4-(2,6-dioxopiperidin-3-yl)benzofuran-2-yl)prop-2-yn-1-yl)-3-methylpicolinamide]	10 to 99 nM	20 to 39%	> 80%	< 1 nM
Cc1cc2c(N3CCCc4nc(-c5ccc(C(=O)NCC#Cc6cc7cccc(C8CCC(=O)NC8=O)c7o6)nc5)ncc43)cc(C3CCOCC3)cc2n(C)c1=O (stereo not shown) [Example B148, 5-(5-(1,3-dimethyl-2-oxo-7-(tetrahydro-2H-pyran-4-yl)-1,2-dihydroquinolin-5-yl)-5,6,7,8-tetrahydropyrido[3,2-d]pyrimidin-2-yl)-N-(3-(7-(2,6-dioxopiperidin-3-yl)benzofuran-2-yl)prop-2-yn-1-yl)picolinamide]	> 1000 nM	< 20%	60 to 79%	1 to 9.9 nM
Cc1cc(-c2ncc3c(n2)CCCN3c2cccc3c2cc(C)c(=O)n3C)cnc1C(=O)NCC#Cc1cc2c(C3CCC(=O)NC3=O)cccc2o1 (stereo not shown) [Example B153, 5-(5-(1,3-dimethyl-2-oxo-1,2-dihydroquinolin-5-yl)-5,6,7,8-tetrahydropyrido[3,2-d]pyrimidin-2-yl)-N-(3-(4-(2,6-dioxopiperidin-3-yl)benzofuran-2-yl)prop-2-yn-1-yl)-3-methylpicolinamide]	100 to 999 nM	< 20%	> 80%	< 1 nM
Cc1cc2c(N3CCCc4nc(-c5ccc(C(=O)NCC#Cc6ccc7c(c6)c(C6CCC(=O)NC6=O)nn7C)nc5)ncc43)cc(C3CCOCC3)cc2n(C)c1=O (stereo not shown) [Example B154, 5-(5-(1,3-dimethyl-2-oxo-7-(tetrahydro-2H-pyran-4-yl)-1,2-dihydroquinolin-5-yl)-5,6,7,8-tetrahydropyrido[3,2-d]pyrimidin-2-yl)-N-(3-(3-(2,6-dioxopiperidin-3-yl)-1-methyl-1H-indazol-5-yl)prop-2-yn-1-yl)picolinamide]	1 to 9.9 nM	60 to 79%	> 80%	1 to 9.9 nM
Cc1cc2c(N3CCCc4nc(-c5ccc(C(=O)NCC#Cc6nc7cccc(C8CCC(=O)NC8=O)n7n6)nc5)ncc43)cc(C3CCOCC3)cc2n(C)c1=O (stereo not shown) [Example B156, 5-(5-(1,3-dimethyl-2-oxo-7-(tetrahydro-2H-pyran-4-yl)-1,2-dihydroquinolin-5-yl)-5,6,7,8-tetrahydropyrido[3,2-d]pyrimidin-2-yl)-N-(3-(5-(2,6-dioxopiperidin-3-yl)-[1,2,4]triazolo [1,5-a]pyridin-2-yl)prop-2-yn-1-yl) picolinamide]	> 1000 nM	< 20%	20 to 39%	10 to 99 nM
Cc1cc2c(N3CCCc4nc(-c5ccc(C(=O)NCC#Cc6cc7c(C8CCC(=O)NC8=O)nccc7o6)nc5)ncc43)cc(C(C)C)cc2n(C)c1=O (stereo not shown) [Example B157, N-(3-(4-(2,6-dioxopiperidin-3-yl)furo[3,2-c]pyridin-2-yl)prop-2-yn-1-yl)-5-(5-(7-isopropyl-1,3-dimethyl-2-oxo-1,2-dihydroquinolin-5-yl)-5,6,7,8-tetrahydropyrido[3,2-d]pyrimidin-2-yl) picolinamide]	10 to 99 nM	20 to 39%	> 80%	1 to 9.9 nM
Cc1cc2c(N3CCCc4nc(-c5ccc(C(=O)NCC#Cc6cc7c(C8CCC(=O)NC8=O)cccc7o6)nc5)ncc43)cc(C3CC4CCC(C3)O4)nc2n(C)c1=O (stereo not shown) [Example B159, 5-(5-(2-(8-oxabicyclo[3.2.1]octan-3-yl)-6,8-dimethyl-7-oxo-7,8-dihydro-1,8-naphthyridin-4-yl)-5,6,7,8-tetrahydropyrido[3,2-d]pyrimidin-2-yl)-N-(3-(4-(2,6-dioxopiperidin-3-yl)benzofuran-2-yl)prop-2-yn-1-yl)picolinamide]	100 to 999 nM	20 to 39%	> 80%	1 to 9.9 nM
Cc1cc2c(-c3cn(C)c(=O)c4cc(-c5ccc(C(=O)NCC#Cc6cc7c(C8CCC(=O)NC8=O)cccc7o6)nc5)ncc34)cc(C3CCOCC3)nc2n(C)c1=O (stereo not shown) [Example B160, 5-(8-(6,8-dimethyl-7-oxo-2-(tetrahydro-2H-pyran-4-yl)-7,8-dihydro-1,8-naphthyridin-4-yl)-6-methyl-5-oxo-5,6-dihydro-2,6-naphthyridin-3-yl)-N-(3-(4-(2,6-dioxopiperidin-3-yl)benzofuran-2-yl)prop-2-yn-1-yl)picolinamide]	> 1000 nM	< 20%	> 80%	1 to 9.9 nM
Cc1cc2c(N3CCCc4nc(-c5ccc(C(=O)NCC#Cc6cc7c(C8CCC(=O)NC8=O)cccc7o6)nc5)ncc43)cc(C3CCC3)cc2n(C)c1=O (stereo not shown) [Example B161, 5-(5-(7-cyclobutyl-1,3-dimethyl-2-oxo-1,2-dihydroquinolin-5-yl)-5,6,7,8-tetrahydropyrido [3,2-d]pyrimidin-2-yl)-N-(3-(4-(2,6-dioxo-piperidin-3-yl)benzofuran-2-yl)prop-2-yn-1-yl)picolinamide]	> 1000 nM	< 20%	> 80%	1 to 9.9 nM

The remaining lines, values ahead:

DC50 (CBP)	Dmax (CBP)	Dmax (p300)	DC50 (p300)	SMILES
> 1000 nM	< 20%	> 80%	1 to 9.9 nM	Cc1cc2c(N3CCCc4nc(-c5ccc(C(=O)NCC#Cc6cc7c(C8CCC(=O)NC8=O)cccc7o6)nc5)ncc43)nc(N3CCC(C)(O)CC3)cc2n(C)c1=O (stereo not shown) [Example B162, N-(3-(4-(2,6-dioxopiperidin-3-yl)benzofuran-2-yl)prop-2-yn-1-yl)-5-(5-(7-(4-hydroxy-4-methylpiperidin-1-yl)-1,3-dimethyl-2-oxo-1,2-dihydro-1,6-naphthyridin-5-yl)-5,6,7,8-tetrahydropyrido[3,2-d]pyrimidin-2-yl) picolinamide]
> 1000 nM	< 20%	> 80%	< 1 nM	Cc1cc2c(N3CCCc4nc(-c5ccc(C(=O)NCC#Cc6cc7c(C8CCC(=O)NC8=O)cccc7o6)nc5)ncc43)cc(C3COC3)nc2n(C)c1=O (stereo not shown) [Example B163, 5-(5-(6,8-dimethyl-2-(oxetan-3-yl)-7-oxo-7,8-dihydro-1,8-naphthyridin-4-yl)-5,6,7,8-tetrahydropyrido[3,2-d]pyrimidin-2-yl)-N-(3-(4-(2,6-dioxopiperidin-3-yl)benzofuran-2-yl)prop-2-yn-1-yl)picolinamide]
> 1000 nM	< 20%	> 80%	10 to 99 nM	Cc1cc2c(N3CCCc4nc(-c5ccc(C(=O)NCC#Cc6cc7c(C8CCC(=O)NC8=O)cccc7o6)nc5)ncc43)cc(C3CCC3)nc2n(C)c1=O (stereo not shown) [Example B164, 5-(5-(2-cyclobutyl-6,8-dimethyl-7-oxo-7,8-dihydro-1,8-naphthyridin-4-yl)-5,6,7,8-tetra-hydropyrido[3,2-d]pyrimidin-2-yl)-N-(3-(4-(2,6-dioxopiperidin-3-yl)benzofuran-2-yl)prop-2-yn-1-yl)picolinamide]
10 to 99 nM	20 to 39%	> 80%	1 to 9.9 nM	Cc1cc(-c2ncc3c(n2)CCCN3c2cc(C3CCOCC3)cc3c2cc(C)c(=O)n3C)cnc1C(=O)NCC#Cc1cc2c(C3CCC(=O)NC3=O)cccc2s1 (stereo not shown) [Example B165, 5-(5-(1,3-dimethyl-2-oxo-7-(tetrahydro-2H-pyran-4-yl)-1,2-dihydroquinolin-5-yl)-5,6,7,8-tetrahydropyrido[3,2-d]pyrimidin-2-yl)-N-(3-(4-(2,6-dioxopiperidin-3-yl)benzo[b]thiophen-2-yl)prop-2-yn-1-yl)-3-methylpicolinamide]
> 1000 nM	< 20%	60 to 79%	1 to 9.9 nM	Cc1cc2c(N3CCOc4nc(-c5ccc(C(=O)NCC#Cc6cc7c(C8CCC(=O)NC8=O)cccc7o6)nc5)ncc43)cc(C3CCOCC3)nc2n(C)c1=O (stereo not shown) [Example B166, 5-(5-(6,8-dimethyl-7-oxo-2-(tetrahydro-2H-pyran-4-yl)-7,8-dihydro-1,8-naphthyridin-4-yl)-6,7-dihydro-5H-pyrimido[4,5-b][1,4]oxazin-2-yl)-N-(3-(4-(2,6-dioxopiperidin-3-yl)benzofuran-2-yl)prop-2-yn-1-yl) picolinamide]
